Results reported in patent US20250092046A1, “TYROSINE KINASE INHIBITORS” (THE UNIVERSITY COURT OF THE UNIVERSITY OF EDINBURGH, priority 2021, published 2025).

How the values were obtained:
ABL = ABL (Homo sapiens, UniProt P00519); assay: Kinase screening assay (mobility shift, LabChip); type: biochemical; settings: 0.5 micromolar compound
Procedure: (§1) A 4× Substrate/ATP/Metal (1 […], 5 mmol/L Mg^2+) solution was prepared with buffer (20 mmol/L HEPES, 0.01% Triton X-100, 5 mmol/L DTT, pH 7.5), and a 2× kinase solution was also prepared with buffer (20 mmol/L HEPES, 0.01% Triton X-100, 1 mmol/L DTT, pH 7.5). 5 μL of 4× compound solution, 5 μL of 4× Substrate/ATP/Metal solution, and 10 μL of 2× kinase solution were mixed and incubated in a well of polypropylene 384 well microplate for 1 hour at room temperature. 70 μL of Termination Buffer (QuickScout Screening Assist MSA) was added to the well. The reaction mixture was applied to LabChip™ system, and the product and substrate peptide peaks were separated and quantitated.

BRK = BRK (Homo sapiens, UniProt Q13882); assay: Kinase screening assay (mobility shift, LabChip); type: biochemical; settings: 0.5 micromolar compound
Procedure: as §1

EGFR = EGFR (Homo sapiens, UniProt P00533); assay: Kinase screening assay (mobility shift, LabChip); type: biochemical; settings: 0.5 micromolar compound
Procedure: as §1

FGR = FGR (Homo sapiens, UniProt P09769); assay: Kinase screening assay (mobility shift, LabChip); type: biochemical; settings: 0.5 micromolar compound
Procedure: as §1

FYNa = FYNa (Homo sapiens, UniProt P06241); assay: Kinase screening assay (mobility shift, LabChip); type: biochemical; settings: 0.5 micromolar compound
Procedure: as §1

HCK = HCK (Homo sapiens, UniProt P08631); assay: Kinase screening assay (mobility shift, LabChip); type: biochemical; settings: 0.5 micromolar compound
Procedure: as §1

Her4 = Her4 (Homo sapiens, UniProt Q15303); assay: Kinase screening assay (mobility shift, LabChip); type: biochemical; settings: 0.5 micromolar compound
Procedure: as §1

KDR = KDR (Homo sapiens, UniProt P35968); assay: Kinase screening assay (mobility shift, LabChip); type: biochemical; settings: 0.5 micromolar compound
Procedure: as §1

KIT = KIT (Homo sapiens, UniProt P10721); assay: Kinase screening assay (mobility shift, LabChip); type: biochemical; settings: 0.5 micromolar compound
Procedure: as §1

LCK = LCK (Homo sapiens, UniProt P06239); assay: Kinase screening assay (mobility shift, LabChip); type: biochemical; settings: 0.5 micromolar compound
Procedure: as §1

LYNa = LYNa (Homo sapiens, UniProt P07948); assay: Kinase screening assay (mobility shift, LabChip); type: biochemical; settings: 0.5 micromolar compound
Procedure: as §1

PDGFR alpha = PDGFR alpha (Homo sapiens, UniProt P16234); assay: Kinase screening assay (mobility shift, LabChip); type: biochemical; settings: 0.5 micromolar compound
Procedure: as §1

RET = RET (Homo sapiens, UniProt P07949); assay: Kinase screening assay (mobility shift, LabChip); type: biochemical; settings: 0.5 micromolar compound
Procedure: as §1

SRC = SRC (Homo sapiens, UniProt P12931); assay: Kinase screening assay (mobility shift, LabChip); type: biochemical; settings: 0.5 micromolar compound
Procedure: as §1

YES = YES (Homo sapiens, UniProt P07947); assay: Kinase screening assay (mobility shift, LabChip); type: biochemical; settings: 0.5 micromolar compound
Procedure: as §1

[1] = test system: MDA-MB-231 breast cancer cells; assay: Cell viability assay (PrestoBlue); type: cell-based; settings: Homo sapiens, 120 h, 5 days treatment
Procedure: (§2) Cells were grown in Dulbecco's Modified Eagle Medium (DMEM) or Roswell Park Memorial Institute (RPMI) medium supplemented with serum (10% fetal bovine serum) and L-glutamine (2 mM) and incubated in a Heracell 240i tissue culture incubator at 37° C. and 5% Co2.
(§3) After 48 hours, the media was aspirated from each well and replaced with 95 μl of fresh medium. Compounds, including DMSO, were prepared at 20× in DMEM medium in a separate 96-well intermediate plate. 5 μl from the intermediate plate was then added to each well containing cells. Untreated cells were incubated with DMSO (0.1% v/v). After 5 days, PrestoBlue™ cell viability reagent (10 μl) was added to each well and the plates incubated for 60-90 min. Fluorescence emission was detected using a fluorescence plate reader (excitation 540 nm, emission 590 nm). All conditions were normalised to the untreated cells (100%) and dose-response curves were fitted using GraphPad Prism software.

[2] = test system: SRC and its family members; assay: Kinase screening assay, selectivity across the panel; type: biochemical; settings: kinase panel of Table 1, 0.5 micromolar
Procedure: as §1

cancer cell lines = assay: Screening in cancer cell lines (cell viability); type: cell-based
Procedure: as §2, §3

Sequence of EGFR (P00533 25-1210): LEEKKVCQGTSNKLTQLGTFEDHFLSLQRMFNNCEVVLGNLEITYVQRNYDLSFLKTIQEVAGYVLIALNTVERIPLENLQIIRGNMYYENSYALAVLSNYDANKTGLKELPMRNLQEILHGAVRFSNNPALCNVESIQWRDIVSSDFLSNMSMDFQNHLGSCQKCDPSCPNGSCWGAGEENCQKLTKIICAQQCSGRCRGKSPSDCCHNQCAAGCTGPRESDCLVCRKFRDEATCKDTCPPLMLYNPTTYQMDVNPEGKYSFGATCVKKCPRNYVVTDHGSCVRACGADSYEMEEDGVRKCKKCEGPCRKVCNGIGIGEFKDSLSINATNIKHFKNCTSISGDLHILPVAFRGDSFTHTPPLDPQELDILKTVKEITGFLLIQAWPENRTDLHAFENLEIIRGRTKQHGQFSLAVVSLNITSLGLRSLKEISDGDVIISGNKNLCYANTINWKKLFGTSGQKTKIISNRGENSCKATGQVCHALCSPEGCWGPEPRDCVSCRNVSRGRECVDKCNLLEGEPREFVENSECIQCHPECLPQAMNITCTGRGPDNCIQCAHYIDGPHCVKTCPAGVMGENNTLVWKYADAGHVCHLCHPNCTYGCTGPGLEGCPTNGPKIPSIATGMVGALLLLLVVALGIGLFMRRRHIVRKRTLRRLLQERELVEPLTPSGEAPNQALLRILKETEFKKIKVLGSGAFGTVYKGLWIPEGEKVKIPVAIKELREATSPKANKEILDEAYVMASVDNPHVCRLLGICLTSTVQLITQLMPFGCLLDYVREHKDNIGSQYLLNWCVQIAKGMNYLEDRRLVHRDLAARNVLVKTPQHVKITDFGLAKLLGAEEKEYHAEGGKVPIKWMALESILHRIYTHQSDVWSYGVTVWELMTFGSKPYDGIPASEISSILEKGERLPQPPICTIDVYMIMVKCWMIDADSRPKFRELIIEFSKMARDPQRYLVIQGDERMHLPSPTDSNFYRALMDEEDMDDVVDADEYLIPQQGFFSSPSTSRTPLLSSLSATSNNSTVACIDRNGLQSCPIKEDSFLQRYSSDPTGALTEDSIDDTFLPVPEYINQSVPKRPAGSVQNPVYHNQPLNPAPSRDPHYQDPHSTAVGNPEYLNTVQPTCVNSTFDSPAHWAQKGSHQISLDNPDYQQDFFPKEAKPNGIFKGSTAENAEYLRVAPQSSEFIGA
Sequence of PDGFR alpha (P16234 24-1089): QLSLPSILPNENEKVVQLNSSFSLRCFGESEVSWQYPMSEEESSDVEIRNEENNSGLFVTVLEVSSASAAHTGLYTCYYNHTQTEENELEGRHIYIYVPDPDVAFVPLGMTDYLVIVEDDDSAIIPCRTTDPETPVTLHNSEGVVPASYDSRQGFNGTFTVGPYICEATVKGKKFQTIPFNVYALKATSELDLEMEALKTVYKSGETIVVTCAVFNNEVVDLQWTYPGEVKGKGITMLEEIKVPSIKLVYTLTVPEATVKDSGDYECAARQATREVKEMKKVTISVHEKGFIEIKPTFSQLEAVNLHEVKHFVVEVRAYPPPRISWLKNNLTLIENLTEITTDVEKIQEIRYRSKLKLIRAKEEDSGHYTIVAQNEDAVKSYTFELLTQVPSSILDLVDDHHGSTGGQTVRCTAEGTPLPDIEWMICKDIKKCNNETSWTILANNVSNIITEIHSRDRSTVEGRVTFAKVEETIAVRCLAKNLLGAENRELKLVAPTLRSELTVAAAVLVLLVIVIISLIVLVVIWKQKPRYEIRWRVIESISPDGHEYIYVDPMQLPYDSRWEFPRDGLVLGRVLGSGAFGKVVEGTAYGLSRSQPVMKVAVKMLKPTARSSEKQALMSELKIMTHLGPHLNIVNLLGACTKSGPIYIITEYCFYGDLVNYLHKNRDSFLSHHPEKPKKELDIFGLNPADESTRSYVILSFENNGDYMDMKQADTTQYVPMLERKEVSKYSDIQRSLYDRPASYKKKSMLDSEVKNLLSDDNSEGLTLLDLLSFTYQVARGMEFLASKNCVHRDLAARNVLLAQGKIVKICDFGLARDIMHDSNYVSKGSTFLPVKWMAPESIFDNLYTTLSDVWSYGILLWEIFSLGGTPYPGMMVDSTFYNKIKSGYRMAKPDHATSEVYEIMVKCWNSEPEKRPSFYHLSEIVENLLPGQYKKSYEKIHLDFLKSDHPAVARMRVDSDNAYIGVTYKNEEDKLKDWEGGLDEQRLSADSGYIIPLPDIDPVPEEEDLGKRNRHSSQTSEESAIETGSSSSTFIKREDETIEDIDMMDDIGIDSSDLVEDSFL
Sequence of KDR (P35968 20-1356): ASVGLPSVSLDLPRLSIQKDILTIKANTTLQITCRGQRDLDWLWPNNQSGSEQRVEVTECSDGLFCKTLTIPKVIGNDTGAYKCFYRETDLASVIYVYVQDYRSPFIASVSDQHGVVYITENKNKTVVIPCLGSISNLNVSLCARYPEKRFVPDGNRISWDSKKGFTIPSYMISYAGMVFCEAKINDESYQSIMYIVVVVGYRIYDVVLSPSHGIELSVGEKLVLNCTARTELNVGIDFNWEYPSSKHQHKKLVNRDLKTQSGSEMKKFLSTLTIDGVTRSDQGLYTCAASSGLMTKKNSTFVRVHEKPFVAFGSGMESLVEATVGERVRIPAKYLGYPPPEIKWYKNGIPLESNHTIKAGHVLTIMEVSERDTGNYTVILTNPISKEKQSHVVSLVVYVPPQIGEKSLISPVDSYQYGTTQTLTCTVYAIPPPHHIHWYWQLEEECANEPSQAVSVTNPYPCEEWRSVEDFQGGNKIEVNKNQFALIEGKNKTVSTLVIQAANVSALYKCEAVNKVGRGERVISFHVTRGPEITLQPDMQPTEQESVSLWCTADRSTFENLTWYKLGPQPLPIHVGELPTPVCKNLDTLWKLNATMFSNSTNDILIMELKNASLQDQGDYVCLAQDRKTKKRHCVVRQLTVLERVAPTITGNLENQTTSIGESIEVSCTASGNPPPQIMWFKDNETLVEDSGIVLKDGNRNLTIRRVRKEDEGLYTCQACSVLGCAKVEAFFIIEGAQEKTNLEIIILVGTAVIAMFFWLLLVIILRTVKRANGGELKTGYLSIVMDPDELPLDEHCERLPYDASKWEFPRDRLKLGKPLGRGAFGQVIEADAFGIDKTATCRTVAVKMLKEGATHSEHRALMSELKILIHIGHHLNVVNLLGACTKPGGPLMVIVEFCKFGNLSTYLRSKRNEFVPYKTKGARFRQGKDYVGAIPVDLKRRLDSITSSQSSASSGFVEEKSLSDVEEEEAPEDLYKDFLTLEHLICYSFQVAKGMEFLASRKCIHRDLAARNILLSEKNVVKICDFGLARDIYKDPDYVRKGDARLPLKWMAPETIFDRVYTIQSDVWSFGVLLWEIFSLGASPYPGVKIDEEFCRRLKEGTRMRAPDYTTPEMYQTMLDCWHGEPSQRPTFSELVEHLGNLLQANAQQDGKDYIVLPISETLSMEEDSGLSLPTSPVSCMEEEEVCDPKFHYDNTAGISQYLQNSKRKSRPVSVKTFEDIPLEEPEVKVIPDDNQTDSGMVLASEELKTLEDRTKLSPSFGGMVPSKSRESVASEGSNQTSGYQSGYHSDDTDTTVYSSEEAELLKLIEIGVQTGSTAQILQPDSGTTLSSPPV
Sequence of SRC (P12931 whole entry): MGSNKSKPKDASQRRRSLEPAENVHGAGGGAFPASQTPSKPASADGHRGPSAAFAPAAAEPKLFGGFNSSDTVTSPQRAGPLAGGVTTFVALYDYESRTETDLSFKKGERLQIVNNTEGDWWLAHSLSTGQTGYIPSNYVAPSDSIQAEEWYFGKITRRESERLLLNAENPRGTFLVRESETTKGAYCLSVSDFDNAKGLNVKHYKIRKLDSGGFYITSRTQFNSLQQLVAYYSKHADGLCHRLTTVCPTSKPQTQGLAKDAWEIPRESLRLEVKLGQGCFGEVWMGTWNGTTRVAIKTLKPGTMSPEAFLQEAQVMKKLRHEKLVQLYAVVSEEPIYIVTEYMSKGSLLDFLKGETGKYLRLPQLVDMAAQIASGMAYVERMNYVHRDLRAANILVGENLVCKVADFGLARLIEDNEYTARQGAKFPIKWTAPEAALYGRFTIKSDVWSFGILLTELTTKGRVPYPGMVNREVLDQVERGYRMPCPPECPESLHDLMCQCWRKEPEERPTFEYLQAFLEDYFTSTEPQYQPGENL
Sequence of HCK (P08631 whole entry): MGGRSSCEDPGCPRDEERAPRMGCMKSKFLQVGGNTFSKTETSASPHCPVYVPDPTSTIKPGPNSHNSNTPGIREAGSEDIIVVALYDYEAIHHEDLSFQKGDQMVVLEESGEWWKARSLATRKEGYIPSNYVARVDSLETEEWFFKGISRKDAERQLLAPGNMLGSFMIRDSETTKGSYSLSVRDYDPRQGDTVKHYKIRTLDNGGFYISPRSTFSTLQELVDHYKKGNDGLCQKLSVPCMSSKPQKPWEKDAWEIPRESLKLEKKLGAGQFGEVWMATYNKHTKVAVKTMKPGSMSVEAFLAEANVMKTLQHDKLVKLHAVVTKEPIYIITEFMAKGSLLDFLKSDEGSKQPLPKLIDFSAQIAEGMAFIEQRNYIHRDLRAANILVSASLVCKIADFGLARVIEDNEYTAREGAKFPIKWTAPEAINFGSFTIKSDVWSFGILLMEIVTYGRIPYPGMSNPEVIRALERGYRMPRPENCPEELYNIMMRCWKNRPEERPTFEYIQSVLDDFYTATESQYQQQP
Sequence of BRK (Q13882 whole entry): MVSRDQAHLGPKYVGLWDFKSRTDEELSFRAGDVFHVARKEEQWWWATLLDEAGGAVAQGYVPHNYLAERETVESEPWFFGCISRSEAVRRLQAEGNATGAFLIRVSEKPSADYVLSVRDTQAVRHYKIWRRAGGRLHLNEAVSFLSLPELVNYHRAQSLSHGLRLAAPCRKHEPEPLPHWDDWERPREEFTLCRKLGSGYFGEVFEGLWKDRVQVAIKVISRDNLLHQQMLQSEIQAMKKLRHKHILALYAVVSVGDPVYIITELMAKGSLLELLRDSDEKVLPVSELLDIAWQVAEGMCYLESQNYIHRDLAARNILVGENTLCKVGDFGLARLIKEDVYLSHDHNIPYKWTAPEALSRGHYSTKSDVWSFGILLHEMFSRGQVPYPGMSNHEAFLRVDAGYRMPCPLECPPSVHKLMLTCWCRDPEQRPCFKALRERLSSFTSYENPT

inhibition at 0.5 µM (ABL) | inhibition at 0.5 µM (BRK) | inhibition at 0.5 µM (EGFR) | inhibition at 0.5 µM (FGR) | inhibition at 0.5 µM (FYNa) | inhibition at 0.5 µM (HCK) | inhibition at 0.5 µM (Her4) | inhibition at 0.5 µM (KDR) | inhibition at 0.5 µM (KIT) | inhibition at 0.5 µM (LCK) | inhibition at 0.5 µM (LYNa) | inhibition at 0.5 µM (PDGFR alpha) | inhibition at 0.5 µM (RET) | inhibition at 0.5 µM (SRC) | inhibition at 0.5 µM (YES) | GI50 [1] | selectivity for SRC and its family members over other kinases [2] | SMILES | potency and selectivity in cancer cell lines compared with parent compound 506 (cancer cell lines)
24.2% | 99.5% | 58.2% | 100% | 100% | 98.7% | 94.9% | -7.3% | 2.7% | 101% | 101% | 12.2% | -2.3% | 97.3% | 102% | 12.5 nM | more selective than compound 506 | COc1cc(-c2nn(CCN3CCC(NC(C)C)CC3)c3ncnc(N)c23)ccc1NC(=O)OC(C)(C)C [Compound 8, tert-butyl (4-(4-amino-1-(2-(4-(isopropylamino)piperidin-1-yl)ethyl)-1H-pyrazolo[3,4-d]pyrimidin-3-yl)-2-methoxyphenyl)carbamate] | –
– | – | 46.1% | 100% | 100% | 101% | 96.7% | 2.9% | 4.4% | 104% | 101% | 13.5% | 3.8% | 101% | 99.7% | – | – | COc1cc(-c2nn(CCN3CCC(N(C)C)CC3)c3ncnc(N)c23)ccc1NC(=O)OC(C)(C)C [Compound 506, Tert-butyl (4-(4-amino-1-(2-(4-(dimethylamino)piperidin-1-yl)ethyl)-1H-pyrazolo[3,4-d]pyrimidin-3-yl)-2-methoxyphenyl)carbamate, reference compound] | –
29.2% | 98.5% | 46.3% | 101% | 99.4% | 105% | 97.6% | 1.7% | 2.8% | 107% | 102% | 13.6% | -0.3% | 102% | 99.7% | 16.2 nM | more selective than compound 506 | CNC1CCN(CCn2nc(-c3ccc(NC(=O)OC(C)(C)C)c(OC)c3)c3c(N)ncnc32)CC1 [Compound 5a, tert-butyl (4-(4-amino-1-(2-(4-(methylamino)piperidin-1-yl)ethyl)-1H-pyrazolo[3,4-d]pyrimidin-3-yl)-2-methoxyphenyl)carbamate] | retains the potency and selectivity characteristics of the parent compound 506
